Results as given in PMC12298351, “Novel 3,19-(N-Phenyl-3-(4-fluorophenyl)-pyrazole) Acetal of Andrographolide Promotes Cell Cycle Arrest and Apoptosis in MDA-MB-231 Breast Cancer Cells” (Pharmaceuticals, 2025).

Legend:
[1] = test system: UO-31; conditions: UO-31, Renal
[2] = test system: UACC-62; conditions: UACC-62, Melanoma
[3] = test system: K-562; conditions: K-562, Leukemia
[4] = test system: EKVX
[5] = test system: SK-MEL-28; conditions: SK-MEL-28, Melanoma
[6] = test system: MDA-MB-468; conditions: MDA-MB-468, Breast
[7] = test system: A498; conditions: A498, Renal
[8] = test system: IGROV1; conditions: IGROV1, Ovarian
[9] = test system: KM12; conditions: KM12, Colon
[10] = test system: U251; conditions: U251, CNS
[11] = test system: HOP-62
[12] = test system: OVCAR-3; conditions: OVCAR-3, Ovarian
[13] = test system: OVCAR-8; conditions: OVCAR-8, Ovarian
[14] = test system: CCRF-CEM
[15] = test system: SF-268; conditions: SF-268, CNS
[16] = test system: LOX IMVI
[17] = test system: ACHN
[18] = test system: A549/ATCC
[19] = test system: MCF7; conditions: MCF7, Breast
[20] = test system: RXF 393; conditions: RXF 393, Renal
[21] = test system: M14; assay type: cell-based; conditions: M14, Melanoma
[22] = test system: NCI-H460
[23] = test system: NCI/ADR-RES
[24] = test system: RPMI-8226; conditions: RPMI-8226, Leukemia
[25] = test system: SK-OV-3; conditions: SK-OV-3, Ovarian
[26] = test system: UACC-257; conditions: UACC-257, Melanoma
[27] = test system: DU-145; conditions: DU-145, Prostate
[28] = test system: SR
[29] = test system: SN12C
[30] = test system: CAKI-1; conditions: CAKI-1, Renal
[31] = test system: TK-10; assay type: cell-based; conditions: TK-10, Renal
[32] = test system: SW-620; conditions: SW-620, Colon
[33] = read-out: 50% lethal concentration (LC50)
[34] = read-out: 50% lethal concentration (LC50), Non-Small Cell Lung
[35] = read-out: 50% lethal concentration (LC50), Leukemia
[36] = read-out: 50% lethal concentration (LC50), Renal

C=C1CCC2C3(C)COC(c4cn(-c5ccccc5)nc4-c4cccc(Cl)c4)OC3CCC2(C)C1CC=C1C(=O)OCC1O (stereo not shown) [1d]
GI50 [1]: 1.3 µM | Total growth inhibition (TGI) [1]: 2.71 µM | CC50 [1, 33]: 5.63 µM | GI50 [2]: 1.71 µM | Total growth inhibition (TGI) [2]: 3.42 µM | CC50 [2, 33]: 6.83 µM | GI50 [3]: 2.41 µM | CC50 [3, 33]: > 100 µM | Total growth inhibition (TGI) ([4]; Non-Small Cell Lung): 4.95 µM | GI50 ([4]; Non-Small-Cell Lung): 2.21 µM | CC50 [4, 34]: > 100 µM | GI50 [5]: 1.8 µM | Total growth inhibition (TGI) [5]: 3.37 µM | CC50 [5, 33]: 6.33 µM | GI50 [6]: 1.74 µM | Total growth inhibition (TGI) [6]: 3.31 µM | CC50 [6, 33]: 6.3 µM | GI50 [7]: 2.9 µM | Total growth inhibition (TGI) [7]: 11.4 µM | CC50 [7, 33]: 38.1 µM | GI50 [8]: 1.39 µM | Total growth inhibition (TGI) [8]: 3.22 µM | CC50 [8, 33]: 7.5 µM | GI50 [9]: 1.67 µM | Total growth inhibition (TGI) [9]: 3.32 µM | GI50 [10]: 1.59 µM | Total growth inhibition (TGI) [10]: 3 µM | Total growth inhibition (TGI) ([11]; HOP-62, Non-Small Cell Lung): 4.29 µM | GI50 ([11]; HOP-62, Non-Small-Cell Lung): 1.78 µM | CC50 ([11]; read-out: 50% lethal concentration (LC50), HOP-62, Non-Small Cell Lung): > 100 µM | GI50 [12]: 1.6 µM | Total growth inhibition (TGI) [12]: 3.09 µM | CC50 [12, 33]: 5.95 µM | GI50 [13]: 1.53 µM | Total growth inhibition (TGI) [13]: 3.44 µM | CC50 [13, 33]: > 100 µM | GI50 ([14]; Leukemia): 1.32 µM | Total growth inhibition (TGI) ([14]; Leukemia): 16.3 µM | CC50 [14, 35]: > 100 µM | GI50 [15]: 1.6 µM | Total growth inhibition (TGI) [15]: 3.34 µM | CC50 [15, 33]: 6.94 µM | GI50 ([16]; Melanoma): 1.61 µM | Total growth inhibition (TGI) ([16]; Melanoma): 2.97 µM | CC50 ([16]; read-out: 50% lethal concentration (LC50), Melanoma): 5.5 µM | GI50 ([17]; Renal): 1.64 µM | Total growth inhibition (TGI) ([17]; Renal): 3.01 µM | CC50 [17, 36]: 5.52 µM | Total growth inhibition (TGI) ([18]; Non-Small Cell Lung): 11.3 µM | GI50 ([18]; Non-Small-Cell Lung): 2.82 µM | CC50 [18, 34]: 69.1 µM | GI50 [19]: 1.48 µM | Total growth inhibition (TGI) [19]: 66.8 µM | CC50 [19, 33]: > 100 µM | GI50 [20]: 1.05 µM | Total growth inhibition (TGI) [20]: 2.31 µM | CC50 [20, 33]: 5.07 µM | GI50 [21]: 1.69 µM | Total growth inhibition (TGI) [21]: 3.88 µM | Total growth inhibition (TGI) ([22]; NCI-H460, Non-Small Cell Lung): 3.34 µM | GI50 ([22]; NCI-H460, Non-Small-Cell Lung): 1.68 µM | CC50 ([22]; read-out: 50% lethal concentration (LC50), NCI-H460, Non-Small Cell Lung): 6.66 µM | GI50 ([23]; Ovarian): 1.88 µM | Total growth inhibition (TGI) ([23]; Ovarian): 4.77 µM | CC50 ([23]; read-out: 50% lethal concentration (LC50), Ovarian): > 100 µM | GI50 [24]: 1.38 µM | Total growth inhibition (TGI) [24]: > 100 µM | CC50 [24, 33]: > 100 µM | GI50 [25]: 5.86 µM | Total growth inhibition (TGI) [25]: 33.4 µM | CC50 [25, 33]: > 100 µM | GI50 [26]: 1.77 µM | Total growth inhibition (TGI) [26]: 3.57 µM | GI50 [27]: 1.88 µM | Total growth inhibition (TGI) [27]: 3.98 µM | CC50 [27, 33]: 8.43 µM | GI50 ([28]; Leukemia): 1.29 µM | Total growth inhibition (TGI) ([28]; Leukemia): 4.03 µM | CC50 [28, 35]: > 100 µM | GI50 ([29]; Renal): 1.65 µM | Total growth inhibition (TGI) ([29]; Renal): 3.62 µM | CC50 [29, 36]: 7.92 µM | GI50 [30]: 1.32 µM | Total growth inhibition (TGI) [30]: 2.66 µM | CC50 [30, 33]: 5.39 µM | GI50 [31]: 2.14 µM | Total growth inhibition (TGI) [31]: 4.56 µM | CC50 [31, 33]: 9.71 µM | GI50 [32]: 1.53 µM | Total growth inhibition (TGI) [32]: 3.4 µM | CC50 [32, 33]: 7.55 µM
